Measurements published in EP3050567B1, “COMPOUND FOR ACTIVATING AMPK AND USES THEREOF” (Energenesis Biomedical Co., Ltd., priority 2013, dated 2015).

Assays:
MCF7 = experiment: Cancer cell growth inhibition assay, MCF7; type: cell-based; settings: Homo sapiens; MCF7 cell proliferation, 72 h, cell counting
Experimental: (§1) Human liver hepatocellular carcinoma cell line Hep G2, human breast adenocarcinoma cell line MCF7 and human colon adenocarcinoma grade II cell line HT29 were used to evaluate the effects of adenine on cell proliferation. Those cell lines were obtained from ATCC and were cultured in high-glucose Dulbecco's modified Eagle's medium (DMEM) containing 10% fetal bovine serum (FBS), 4 mM L-glutamine, 2 mM sodium pyruvate and 1% penicillin/streptomycin (Invitrogen GibcoBRL, Carlsbad, Calif., USA) at 37°C under 5% CO2. Cells were plated at 1 × 10^5 per well (6-well plate). Twenty-four hours after plating, cells were treated with indicated concentration of adenine for 72 h and then followed by cell counting. Cells were detached using trypsin-EDTA solution and stained with trypan blue. The living cells were counted using hemocytometer.

AMPK [1] = experiment: AMPK activation assay (phospho-AMPK Thr172 western blot) in C2C12 cells; type: cell-based, Mouse; settings: 30 min
Experimental: (§2) Effects of adenine on AMPK activation were evaluated based on the phosphorylation of AMPK protein upon adenine treatment. Mouse muscle cell C2C12, mouse fibroblast 3T3, human liver carcinoma cell Hep G2, human breast adenocarcinoma cell line MCF7 and human colon adenocarcinoma grade II cell line HT29, human umbilical vein endothelial cell HUVEC, Human acute monocytic leukemiacell THP1, human macrophage cell U937, murine microglia cell BV-2, and mouse neuroblastoma cell Neuro2A and dermal papilla cell were cultured in high-glucose Dulbecco's modified Eagle's medium (DMEM) containing 10% fetal bovine serum (FBS), 4 mM L-glutamine, 2 mM sodium pyruvate and 1% penicillin/streptomycin (Invitrogen GibcoBRL, Carlsbad, Calif., USA) at 37°C, under 5% CO2. Cells were plated at 3 × 10^5 per well in 6-well plates. Twenty-four hours after plating, adenine was added to the culture media as indicated. After 30 min cells were lysed and subject to western blot analysis. Equal amount of protein from each sample was separated by SDS-PAGE and then electroblotted on to PVDF membranes. Membranes were blocked with 3% BSA in PBS for 60 min and incubated with an anti-phospho-AMPK (Thr172) antibody (1:2,000, Cell signaling) or an anti-AMPK antibody (1:2,000, Cell signaling) at 4°C for 16 h followed by the corresponding secondary antibody for 1 h at room temperature (RT). Immunoreactive bands were detected by enhanced chemiluminescence and recorded using Kodak film. The detected signals were scanned and then quantified using TotalLab Quant software (TotalLab).

AMPK [2] = experiment: AMPK activation assay (phospho-AMPK Thr172 western blot) in U937 cells; type: cell-based, human; settings: 30 min
Experimental: as §2

HT29 = experiment: Cancer cell growth inhibition assay, HT29; type: cell-based; settings: Homo sapiens, HT-29; HT29 cell proliferation, 72 h, cell counting
Experimental: as §1

AMPK [3] = experiment: AMPK activation assay (phospho-AMPK Thr172 western blot) in HT29 cells; type: cell-based, human; settings: 30 min
Experimental: as §2

AMPK [4] = experiment: AMPK activation assay (phospho-AMPK Thr172 western blot) in Hep G2 cells; type: cell-based, human; settings: 30 min
Experimental: as §2

COX-2 = experiment: LPS-induced inflammatory response in THP1 macrophages, intracellular COX-2 (western blot); type: cell-based, human; settings: 50 ng LPS 6 hr
Experimental: Effects of adenine on inflammatory response were evaluated in human THP1 macrophage by examining protein level of intracellular COX-2 and secreted TNFα, IL-1β and IL-6. Differentiation of THP1 monocytes into macrophages was induced by 50 nM PMA for 24 hr. THP1 macrophages were further stimulated by 50 ng LPS for 6 hr in the presence of 10-600 µM of adenine or vehicle followed by cell lysis and western blot analysis. Equal amounts of protein were separated by SDS-PAGE and then electroblotted on to PVDF membranes. Membranes were blocked with 3% BSA in PBS for 60 min and incubated with an anti-COX-2 antibody (1:1,000, Cell signaling), an anti-actin antibody (1:5,000, Cell signaling) at 4° C for 16 h followed by the corresponding secondary antibody for 1 h at room temperature (RT). Immunoreactive bands were detected by enhanced chemiluminescence and recorded using Kodak film. The detected signals were scanned and then quantified using TotalLab Quant software (TotalLab). The secreted TNFα, IL-1β and IL-6 were analyzed by enzyme-linked immunosorbent assays.

Hep G2 cells = experiment: Tumor growth assay, Hep G2 implanted subcutaneously; type: in vivo; settings: Hep G2 implanted NOD-SCID mice, daily IP adenine 5, 20 or 50 mg/kg, 14 days post implantation, vs control mice
Experimental: Human liver hepatocellular carcinoma cell line Hep G2 were cultured in high-glucose Dulbecco's modified Eagle's medium (DMEM) containing 10% fetal bovine serum (FBS), 4 mM L-glutamine, 2 mM sodium pyruvate and 1% penicillin/streptomycin (Invitrogen GibcoBRL, Carlsbad, Calif., USA) at 37°C under 5% CO2. For tumor implantation, 5 × 10^6 Hep G2 cells were injected subcutaneously into 8-week-old male nonobese diabetic-severe combined immunodeficiency (NOD-SCID) mice. After implantation, the mice were daily intraperitoneally injected with 5, 20 or 50 mg/kg body weight of adenine and the tumor size was monitored every 3 days.

AMPK [5] = experiment: AMPK activation assay (phospho-AMPK Thr172 western blot) in dermal papilla cells; type: cell-based; settings: 30 min
Experimental: as §2

In the case of `Nc1ncnc2nc[nH]c12` [Adenine, adenine], the IC50 (MCF7) is reported as 538 µM, the “AMPK activation (fold to control)” value (AMPK [1]; adenine 1 microM) is reported as 1.2 fold to control and the “AMPK activation (fold to control)” value (AMPK [1]; adenine 10 microM) is reported as 1.7 fold to control. The “AMPK activation (fold to control)” value (AMPK [1]; adenine 100 microM) was 3.2 fold to control, the “AMPK activation (fold to control)” value (AMPK [1]; adenine 200 microM) was 3.9 fold to control and the “AMPK activation (fold to control)” value (AMPK [1]; adenine 600 microM) was 4.1 fold to control. For the same compound, the “AMPK activation (fold to control)” value (AMPK [2]; adenine 1 microM) was 1.1 fold to control, the “AMPK activation (fold to control)” value (AMPK [2]; adenine 10 microM) was 1.3 fold to control and the “AMPK activation (fold to control)” value (AMPK [2]; adenine 100 microM) was 2.9 fold to control. The “AMPK activation (fold to control)” value (AMPK [2]; adenine 200 microM) was 3.7 fold to control, the “AMPK activation (fold to control)” value (AMPK [2]; adenine 600 microM) was 4.0 fold to control and the IC50 (HT29) was 532 µM. For the same compound, the “AMPK activation (fold to control)” value (AMPK [3]; adenine 1 microM) was 1.1 fold to control, the “AMPK activation (fold to control)” value (AMPK [3]; adenine 10 microM) was 1.7 fold to control and the “AMPK activation (fold to control)” value (AMPK [3]; adenine 100 microM) was 2.9 fold to control. For the same compound, the “AMPK activation (fold to control)” value (AMPK [3]; adenine 200 microM) was 3.4 fold to control, the “AMPK activation (fold to control)” value (AMPK [3]; adenine 600 microM) was 3.8 fold to control and the “AMPK activation (fold to control)” value (AMPK [4]; adenine 1 microM) was 1.1 fold to control. The “AMPK activation (fold to control)” value (AMPK [4]; adenine 10 microM) was 2.1 fold to control, the “AMPK activation (fold to control)” value (AMPK [4]; adenine 100 microM) was 3.3 fold to control and the “AMPK activation (fold to control)” value (AMPK [4]; adenine 200 microM) was 3.8 fold to control. For the same compound, the “AMPK activation (fold to control)” value (AMPK [4]; adenine 600 microM) was 4.2 fold to control, the “COX-2 (% to control)” value (COX-2; adenine 10 microM) was 81±4.4 % to control and the “COX-2 (% to control)” value (COX-2; adenine 100 microM) was 59±3.5 % to control. For the same compound, the “COX-2 (% to control)” value (COX-2; adenine 600 microM) was 38±5.3 % to control, the growth of tumor (Hep G2 cells) was “significantly retarded” and the “AMPK activation (fold to control)” value (AMPK [5]; adenine 1 microM) was 1.1 fold to control. The “AMPK activation (fold to control)” value (AMPK [5]; adenine 10 microM) was 1.4 fold to control, the “AMPK activation (fold to control)” value (AMPK [5]; adenine 100 microM) was 2.1 fold to control and the “AMPK activation (fold to control)” value (AMPK [5]; adenine 200 microM) was 2.5 fold to control. For the same compound, the “AMPK activation (fold to control)” value (AMPK [5]; adenine 600 microM) was 2.8 fold to control.
